Assay results as given in patent US12514254B2, “Rosa canina rosehip” (priority 2020, dated 2026).

Experiments:
E. coli = assay: Drug-resistance profile towards antibiotics; assay type: cell-based, Escherichia coli; note: key: R = resistant; S = sensitive
Protocol: (§1) The resistance profiles of the microbial strains mentioned above, evaluated by the inventors and available in the literature, are reported in Tables 4 and 5 [24-26].
(§2) The activity on bacterial or fungal (yeast) strains isolated from biological samples from hospitalized or collection patients was evaluated, the nosocomial derivation of the majority of these strains characterized their resistance to different antimicrobials as reported in Tables 4 and 5.
(§3) In particular: • Klebsiella pneumoniae: represents the main opportunistic microorganism responsible for nosocomial infections and several authors report persistent biofilms of K. pneumoniae in water systems. A clinical isolate (NC5) was used to assess the actual resistance to the preparations. • Escherichia coli: the ATCC 7075 (American Type Culture Collection) strain was used. • Staphylococcus aureus Methicillin-resistantATCC BAA-811 is responsible for several suppurative infections in humans, it is often isolated in patients with prostheses. • Pseudomonas aeruginosa: in the present work a mucoid strain was tested (ATCC 15442) from the American Type Culture Collection (ATCC), known in the literature for its remarkable refractoriness to disinfectants, in particular if the strain is present in sessile form or in a state of mature biofilm. https://www.lgcstandards-atcc.org/products/all/15442.aspx?geo_country=it • Three azole-resistant clinical isolates belonging to the Candida genus were used, in particular: C. albicans clinical isolate BF1, C. krusei clinical isolate BF2 andclinical C. glabrata, isolate BF3 [1,26]. • In all the tests performed, each microbial species was cultivated according to standard growth conditions, in particular: • 1. Mueller-Hinton Agar medium (Microbiol, Uta, Cagliari), was used for the growth of E. coli, S. aureus, P. aeruginosa and K. pneumoniae. The development conditions were: in air at 37° C. • 2. Schaedler Agar and Broth (Microbiol) medium was used for the growth of S. pyogenes and S. mutans. Development conditions: in air and 5% CO2 at 37° C. • 3. Sabouraud Dextrose Agar and Broth (Microbiol), used for C. albicans, C. krusei and C. glabrata. Development conditions: in air at 37° C.

P. aeruginosa = assay: Drug-resistance profile towards antibiotics; assay type: cell-based, Pseudomonas aeruginosa; note: key: R = resistant; S = sensitive
Protocol: as §1, §2, §3

K. pneumoniae = assay: Drug-resistance profile towards antibiotics; assay type: cell-based, Klebsiella pneumoniae; note: key: R = resistant; S = sensitive
Protocol: as §1, §2, §3

S. aureus MRSA = assay: Drug-resistance profile towards antibiotics; assay type: cell-based, Staphylococcus aureus; note: key: R = resistant; S = sensitive
Protocol: as §1, §2, §3

S. pyogenes = assay: Drug-resistance profile towards antibiotics; assay type: cell-based, Streptococcus pyogenes; note: key: R = resistant; S = sensitive
Protocol: as §1, §2, §3

C. albicans = assay: Drug-resistance profile of fungal strains; assay type: cell-based, Candida albicans
Protocol: as §1, §2
as §3, with “Sabouraud Dextrose Agar and Broth (Microbiol), used for C. albicans, C. krusei and C. glabrata. Development conditions: in air at 37° C.” left out

C. krusei = assay: Drug-resistance profile of fungal strains; assay type: cell-based, Candida krusei
Protocol: as §1, §2
as §3, with “Sabouraud Dextrose Agar and Broth (Microbiol), used for C. albicans, C. krusei and C. glabrata. Development conditions: in air at 37° C.” left out

C. glabrata = assay: Drug-resistance profile of fungal strains; assay type: cell-based, Candida glabrata
Protocol: as §1, §2
as §3, with “Sabouraud Dextrose Agar and Broth (Microbiol), used for C. albicans, C. krusei and C. glabrata. Development conditions: in air at 37° C.” left out

Row | Compound | Drug-resistance profile (P. aeruginosa) | Drug-resistance profile (K. pneumoniae) | Drug-resistance profile (S. aureus MRSA) | Drug-resistance profile (S. pyogenes) | also measured
1 | NCC[C@H](O)C(=O)N[C@@H]1C[C@H](N)[C@@H](O[C@H]2O[C@H](CN)[C@@H](O)[C@H](O)[C@H]2O)[C@H](O)[C@H]1O[C@H]1O[C@H](CO)[C@@H](O)[C@H](N)[C@H]1O [Amikacin] | S | R |  |  | Drug-resistance profile (E. coli): R
2 | CC1(C)S[C@@H]2[C@H](NC(=O)Cc3ccccc3)C(=O)N2[C@H]1C(=O)O [Benzylpenicillin] |  |  | R |  | 
3 | CO/N=C(\C(=O)N[C@@H]1C(=O)N2C(C(=O)[O-])=C(C[N+]3(C)CCCC3)CS[C@H]12)c1csc(N)n1 [Cefepime] | S | S |  |  | 
4 | CO/N=C(\C(=O)N[C@@H]1C(=O)N2C(C(=O)O)=C(COC(C)=O)CS[C@H]12)c1csc(N)n1 [Cefotaxime] |  |  |  |  | Drug-resistance profile (E. coli): S
5 | CCO/N=C(\C(=O)N[C@@H]1C(=O)N2C(C(=O)[O-])=C(Sc3nc(-c4cc[n+](C)cc4)cs3)CS[C@H]12)c1nsc(N)n1 [Ceftaroline] |  |  | S |  | 
6 | CC(C)(O/N=C(\C(=O)N[C@@H]1C(=O)N2C(C(=O)[O-])=C(C[n+]3ccccc3)CS[C@H]12)c1csc(N)n1)C(=O)O [Ceftazidime] | S | S |  |  | Drug-resistance profile (E. coli): S
7 | O=C(O)c1cn(C2CC2)c2cc(N3CCNCC3)c(F)cc2c1=O [Ciprofloxacin] | R | S |  |  | 
8 | CCC[C@@H]1C[C@@H](C(=O)N[C@@H]([C@H]2O[C@H](SC)[C@H](O)[C@@H](O)[C@H]2O)[C@H](C)Cl)N(C)C1 [Clindamycin] |  |  | S | S | 
9 | CCCCCCCCCC(=O)N[C@@H](Cc1c[nH]c2ccccc12)C(=O)N[C@H](CC(N)=O)C(=O)N[C@@H](CC(=O)O)C(=O)N[C@@H]1C(=O)NCC(=O)N[C@@H](CCCN)C(=O)N[C@@H](CC(=O)O)C(=O)N[C@H](C)C(=O)N[C@@H](CC(=O)O)C(=O)NCC(=O)N[C@H](CO)C(=O)N[C@@H]([C@H](C)CC(=O)O)C(=O)N[C@@H](CC(=O)c2ccccc2N)C(=O)O[C@@H]1C [Daptomycin] |  |  | S |  | 
10 | C[C@@H](O)[C@H]1C(=O)N2C(C(=O)O)=C(S[C@@H]3CN[C@H](C(=O)Nc4cccc(C(=O)O)c4)C3)[C@H](C)[C@H]12 [Ertapenem] | R | R |  |  | Drug-resistance profile (E. coli): S
11 | CC[C@H]1OC(=O)[C@H](C)[C@@H](O[C@H]2C[C@@](C)(OC)[C@@H](O)[C@H](C)O2)[C@H](C)[C@@H](O[C@@H]2O[C@H](C)C[C@H](N(C)C)[C@H]2O)[C@](C)(O)C[C@@H](C)C(=O)[C@H](C)[C@@H](O)[C@]1(C)O [Erythromycin] |  |  | R | S | 
12 | OC(Cn1cncn1)(Cn1cncn1)c1ccc(F)cc1F [Fluconazole] |  |  |  |  | Drug-resistance profile (C. albicans; FLC reference values): R (FLC: R > 64 μg/mL); Drug-resistance profile (C. krusei; FLC reference values): R (FLC: R > 64 μg/mL); Drug-resistance profile (C. glabrata; FLC reference values): R (FLC: R > 64 μg/mL)
13 | C[C@@H]1O[C@@H]1P(=O)(O)O [Fosfomycin] | R | S |  |  | 
14 | CC(=O)O[C@H]1C[C@@]2(C)[C@@H](C[C@@H](O)[C@H]3[C@@]4(C)CC[C@@H](O)[C@@H](C)[C@@H]4CC[C@@]32C)/C1=C(\CCC=C(C)C)C(=O)O [Fusidic acid] |  |  | S | S | 
15 | C[C@@H](O)[C@H]1C(=O)N2C(C(=O)O)=C(SCCN=CN)C[C@H]12 [Imipenem] | S | S |  |  | 
16 | CC(=O)N1CCN(c2ccc(OCC3COC(Cn4ccnc4)(c4ccc(Cl)cc4Cl)O3)cc2)CC1 (stereo not shown) [Ketoconazole] |  |  |  |  | Drug-resistance profile (C. albicans; KTC reference values): R (KTC: R > 1 μg/mL); Drug-resistance profile (C. krusei; KTC reference values): R (KTC: R > 1 μg/mL); Drug-resistance profile (C. glabrata; KTC reference values): R (KTC: R > 1 μg/mL)

Row | Compound | Drug-resistance profile (P. aeruginosa) | Drug-resistance profile (K. pneumoniae) | Drug-resistance profile (S. aureus MRSA) | Drug-resistance profile (S. pyogenes) | also measured
17 | C[C@H]1COc2c(N3CCN(C)CC3)c(F)cc3c(=O)c(C(=O)O)cn1c23 [Levofloxacin] |  |  | S | S | 
18 | CC(=O)NC[C@H]1CN(c2ccc(N3CCOCC3)c(F)c2)C(=O)O1 [Linezolid] |  |  | S | S | 
19 | C[C@@H](O)[C@H]1C(=O)N2C(C(=O)O)=C(S[C@@H]3CN[C@H](C(=O)N(C)C)C3)[C@H](C)[C@H]12 [Meropenem] | S | S |  |  | Drug-resistance profile (E. coli): S
20 | Cc1onc(-c2ccccc2)c1C(=O)N[C@@H]1C(=O)N2[C@@H]1SC(C)(C)[C@@H]2C(=O)O [Oxacillin] |  |  | S | R | 
21 | CO[C@H]1/C=C/O[C@@]2(C)Oc3c(C)c(O)c4c(O)c(c(/C=N/N5CCN(C)CC5)c(O)c4c3C2=O)NC(=O)/C(C)=C\C=C\[C@H](C)[C@H](O)[C@@H](C)[C@@H](O)[C@@H](C)[C@H](OC(C)=O)[C@@H]1C [Rifampicin] |  |  | S | S | 
22 | CN(C)[C@@H]1C(O)=C(C(N)=O)C(=O)[C@@]2(O)C(O)=C3C(=O)c4c(O)cccc4[C@@](C)(O)[C@H]3C[C@@H]12 [Tetracycline] |  |  | S |  | 
23 | CN(C)c1cc(NC(=O)CNC(C)(C)C)c(O)c2c1C[C@H]1C[C@H]3[C@H](N(C)C)C(O)=C(C(N)=O)C(=O)[C@@]3(O)C(O)=C1C2=O [Tigecycline] |  |  | S | S | 
24 | CN[C@H](CC(C)C)C(=O)N[C@H]1C(=O)N[C@@H](CC(N)=O)C(=O)N[C@H]2C(=O)N[C@H]3C(=O)N[C@H](C(=O)N[C@H](C(=O)O)c4cc(O)cc(O)c4-c4cc3ccc4O)[C@H](O)c3ccc(c(Cl)c3)Oc3cc2cc(c3O[C@@H]2O[C@H](CO)[C@@H](O)[C@H](O)[C@H]2O[C@H]2C[C@](C)(N)[C@H](O)[C@H](C)O2)Oc2ccc(cc2Cl)[C@H]1O [Vancomycin] |  |  | S | S | 
25 | C[C@@H](c1ncncc1F)[C@](O)(Cn1cncn1)c1ccc(F)cc1F [Voriconazole] |  |  |  |  | Drug-resistance profile (C. albicans; VRC reference values): R (VRC: R > 4 μg/mL); Drug-resistance profile (C. krusei; VRC reference values): R (VRC: R > 4 μg/mL); Drug-resistance profile (C. glabrata; VRC reference values): R (VRC: R > 4 μg/mL)
26 | Amoxicillin/ac. Clavulanic |  |  |  |  | Drug-resistance profile (E. coli): R
27 | Colistin | S | S |  |  | 
28 | Gentamicin | S | S | S | S | 
29 | Piperacillin-tazobactam | S | S |  |  | Drug-resistance profile (E. coli): S
30 | Teicoplanin |  |  | S |  | 
31 | Trimethoprim-sulfamethoxazole | R | R | S | R | 
